# Results published in patent US5030647A, “Anti-inflammatory thienylbenzylamine compounds” (Boehringer Ingelheim Pharmaceuticals, Inc., priority 1990, dated 1991).
# Counter-ions that a name gives are not always drawn. Like-named read-outs stand apart in the source and are kept apart here.
# Legend:
# [1] = Hygroscopicity and stability in air of the hydrochloride salt; type: physicochemical
# Description: D. Hydrochloride salt of 5-chloro-2[(2-dimethylaminomethylphenyl) hydroxymethyl]thiophene 1.0 g of the 5-chloro-2-[(2-dimethylaminomethylphenyl)hydroxymethyl]thiophene prepared in C was dissolved in ether. The etheral solution was cooled to -80° C. Upon addition of an ethereal HCl solution a white precipitate was obtained which was immediately filtered under N2 and dried in high vacuum without heating.
# human PMN = experiment: Chemotaxis of human peripheral leukocytes (human PMN chemotaxis, FMLP as chemoattractant); type: cell-based; settings: Leukocyte, FMLP 1×10^-8 M; for inhibition at 1 µM: read-out: PERCENT INHIBITION (human PMN chemotaxis) 1 μM; for inhibition at 0.01 µM: read-out: PERCENT INHIBITION (human PMN chemotaxis) 0.01 μm
# Description: A) Equal parts of citrated peripheral venous blood drawn from a normal volunteer were mixed with saline containing 6% dextran. The mixture was allowed to sediment for 30-40 minutes in a 50 ml polypropylene centrifuge tube. B) The plasma was decanted and centrifuged at 1500 rpm for 7 minutes and washed with saline. C) The supernatant was decanted and the contaminating red blood cells were eliminated by adding ice cold lysing solution and allowing the cell suspension to stand on ice for 5 minutes. […] E) The tubes were centrifuged at 400g for 30 minutes at room temperature. F) The supernatant was decanted and the PMNs (pelleted on the bottom of the tubes) were washed with saline and with Hanks buffer. The cells were adjusted to a final concentration of 3×10^6 cells/ml in Hanks buffer containing 0.5% BSA. 1) Chemoattractant: serial dilution was prepared of the stocks (10^-3 M) N-Formyl-methionyl-leucylphenylalanine in Hanks buffer and 130 μl of 1×10^-8 M solution was pipetted into the lower bottom chamber. The bottom chamber of the negative control was filled with saline. 2) Placed Millipore membranes to completely cover the wells and allowed the liquid to absorb. 3) Placed on upper chamber and tighten retaining nuts. 1) Sample preparation: Mixed equal volume of sample diluted in Hanks buffer containing […] and cell suspension in a test tube prior to pipetting 200 μl into appropriate duplicate chambers. 2) Incubated chambers at 37° C. for 40-60 minutes. 10) Three to five fields per membrane were counted with the aid of the Image Analyser (optimal 40-10). Special effort was made to select a standard for evaluating the cell monolayer in which the distribution of cells in the field of view is uniform. The number of cells at each […] level beneath the selected monolayer was then counted and the chemotactic index (CI) calculated by multiplying the individual cell count at each level by their corresponding depth of penetration, and taking the sum of these numbers. 11) The results in Table II are recorded as percent inhibition. Percent inhibition by each thienylbenzylamime was calculated as follows: [formula] The CI of the control was determined by conducting the assay with N-formyl-methionyl-leucylphenylalanine (FMLP) alone without any thienlbenzylamine. The background was determined by conducting the assay without any FMLP.
# paw swelling = experiment: Reverse passive Arthus reaction, inhibition of paw swelling after oral dosing; type: in vivo; settings: Rattus norvegicus, po, 30 mg/kg oral, rats
# Description: The reverse passive Arthus reaction is initiated by the interaction of antigen and antibody resulting in the formation of a precipitating immune complex, followed by fixation of complement, accumulation of leukocytes, edema and hemorrhage. The immunopathology of rheumatoid arthritis involves many of the parameters found in this reaction. Test groups (5 rats per group) are dosed orally with compounds one hour prior to the sub-plantar injection into the right hind paw of rabbit anti-ovalbumin antibody (50 μg/0.1 ml). Immediately afterwards, ovalbumin (Sigma, #5503) (5 mg/0.2 ml) is injected i.v. via the tail vein. The right hind paw volume is measured at hourly intervals, from one to four hours after the injection of the immune reactants. The change in paw volume for each animal is calculated by subtracting zero hour paw volume (before injection) from the paw volume at the time of measurement. The mean of these values is calculated for each group. Results are expressed in Table I below as percent inhibition of paw swelling compared to untreated controls.
# [2] = 2 h, 2 hours, read-out: % INHIBITION (of paw swelling) HOUR 2
# [3] = 3 h, 3 hours, read-out: % INHIBITION (of paw swelling) HOUR 3
# [4] = 4 h, 4 hours, read-out: % INHIBITION (of paw swelling) HOUR 4
compound,measurement,setting,value
"CN(C)Cc1ccccc1C(O)c1ccc(Cl)s1.Cl (stereo not shown) [Compound 2, 5-chloro-2-[(2-dimethylaminomethylphenyl)hydroxymethyl]thiophene hydrochloride]",hygroscopicity,[1],extremely hygroscopic
same,stability in air,[1]; in air,unstable in air
same,inhibition at 1 µM,human PMN,76%
same,inhibition at 0.01 µM,human PMN,57%
"CN(C)Cc1ccccc1C(O)c1ccsc1Cl (stereo not shown) [Compound 22, 2-chloro-3-[(2-N,N-dimethylaminomethylphenyl)hydroxymethyl]thiophene hydrochloride]",inhibition in vivo at 30 mg/kg,paw swelling; [2],22%
same,inhibition in vivo at 30 mg/kg,paw swelling; [3],0%
same,inhibition in vivo at 30 mg/kg,paw swelling; [4],0%
same,inhibition at 1 µM,human PMN,29%
"CCN(CC)Cc1ccccc1C(O)c1ccc(Cl)s1 (stereo not shown) [Compound 6, 5-chloro-2-[(2-diethylaminomethylphenyl)hydroxymethyl]thiophene]",inhibition in vivo at 30 mg/kg,paw swelling; [2],46%
same,inhibition in vivo at 30 mg/kg,paw swelling; [3],35.9%
same,inhibition in vivo at 30 mg/kg,paw swelling; [4],0%
same,inhibition at 1 µM,human PMN,25%
same,inhibition at 0.01 µM,human PMN,24%
"CN(C)Cc1ccccc1C(O)c1csc(Cl)c1 (stereo not shown) [Compound 24, 5-chloro-3-[(2-N,N-dimethylaminomethylphenyl)hydroxymethyl]thiophene hydrochloride]",inhibition in vivo at 30 mg/kg,paw swelling; [2],51%
same,inhibition in vivo at 30 mg/kg,paw swelling; [3],54%
same,inhibition in vivo at 30 mg/kg,paw swelling; [4],53%
same,inhibition at 1 µM,human PMN,19%
"CN(C)Cc1ccccc1C(C)(O)c1ccc(Cl)s1 (stereo not shown) [Compound 33, N,N-dimethyl-2-[1-(5-chlorothien-2-yl)-1-hydroxyethyl]benzylamine hydrochloride]",inhibition in vivo at 30 mg/kg,paw swelling; [2],66%
same,inhibition in vivo at 30 mg/kg,paw swelling; [3],60%
same,inhibition in vivo at 30 mg/kg,paw swelling; [4],40%
same,inhibition at 1 µM,human PMN,26%
same,inhibition at 0.01 µM,human PMN,26%
CN1Cc2ccccc2C1c1ccc(Cl)s1 (stereo not shown) [Compound 14],inhibition in vivo at 30 mg/kg,paw swelling; [2],64.4%
same,inhibition in vivo at 30 mg/kg,paw swelling; [3],49.9%
same,inhibition in vivo at 30 mg/kg,paw swelling; [4],17.8%
same,inhibition at 1 µM,human PMN,51%
same,inhibition at 0.01 µM,human PMN,0%
"COC(c1ccc(Cl)s1)c1ccccc1CN(CCO)CCO (stereo not shown) [Compound 9, 5-chloro-2-[2-(N,N-diethanolaminomethyl-phenyl)methoxymethyl]thiophene]",inhibition in vivo at 30 mg/kg,paw swelling; [2],20.8%
same,inhibition in vivo at 30 mg/kg,paw swelling; [3],3.6%
same,inhibition in vivo at 30 mg/kg,paw swelling; [4],0%
same,inhibition at 1 µM,human PMN,49%
same,inhibition at 0.01 µM,human PMN,23%
CN(CCO)Cc1ccccc1C(O)c1ccc(Cl)s1 (stereo not shown) [Compound 8],inhibition in vivo at 30 mg/kg,paw swelling; [2],26.9%
same,inhibition in vivo at 30 mg/kg,paw swelling; [3],18.2%
same,inhibition in vivo at 30 mg/kg,paw swelling; [4],2.8%
same,inhibition at 1 µM,human PMN,42%
same,inhibition at 0.01 µM,human PMN,35%
"Cc1ccc(C(O)c2ccccc2CN(C)C)s1 (stereo not shown) [Compound 4, 2-[(2-dimethylaminomethylphenyl)hydroxymethyl]-5-methyl-thiophene]",inhibition in vivo at 30 mg/kg,paw swelling; [2],43.1%
same,inhibition in vivo at 30 mg/kg,paw swelling; [3],19.8%
same,inhibition in vivo at 30 mg/kg,paw swelling; [4],4.2%
same,inhibition at 1 µM,human PMN,55%
same,inhibition at 0.01 µM,human PMN,12%
"CCOC(c1ccc(Cl)s1)c1ccccc1CN(C)C (stereo not shown) [Compound 7, 5-chloro-2-[(2-dimethylaminomethylphenyl)ethoxymethyl]thiophene]",inhibition in vivo at 30 mg/kg,paw swelling; [2],24.2%
same,inhibition in vivo at 30 mg/kg,paw swelling; [3],0%
same,inhibition in vivo at 30 mg/kg,paw swelling; [4],0%
same,inhibition at 1 µM,human PMN,41%
same,inhibition at 0.01 µM,human PMN,37%
"CN(C)Cc1ccccc1C(=O)c1ccc(Cl)s1 [Compound 11, 5-chloro-2-(2-dimethylaminomethylbenzoyl)thiophene]",inhibition in vivo at 30 mg/kg,paw swelling; [2],40.5%
same,inhibition in vivo at 30 mg/kg,paw swelling; [3],18.8%
same,inhibition in vivo at 30 mg/kg,paw swelling; [4],1.5%
same,inhibition at 1 µM,human PMN,33%
same,inhibition at 0.01 µM,human PMN,37%
CN(C)Cc1ccccc1C(O)c1ccsc1 (stereo not shown) [Compound 21],inhibition in vivo at 30 mg/kg,paw swelling; [2],39%
same,inhibition in vivo at 30 mg/kg,paw swelling; [3],18%
same,inhibition in vivo at 30 mg/kg,paw swelling; [4],30%
same,inhibition at 1 µM,human PMN,54%
same,inhibition at 0.01 µM,human PMN,35%
"CN(C)Cc1ccccc1C(O)c1cccs1 (stereo not shown) [Compound 3, 2-[(2-Dimethylaminomethylphenyl)hydroxymethyl]thiophene]",inhibition in vivo at 30 mg/kg,paw swelling; [2],43.3%
same,inhibition in vivo at 30 mg/kg,paw swelling; [3],22.8%
same,inhibition in vivo at 30 mg/kg,paw swelling; [4],0%
same,inhibition at 1 µM,human PMN,39%
same,inhibition at 0.01 µM,human PMN,14%
"CN(C)Cc1ccccc1Cc1ccc(Cl)s1 [Compound 12, 5-chloro-2-(2-dimethylaminomethylphenylmethyl)thiophene]",inhibition in vivo at 30 mg/kg,paw swelling; [2],65.8%
same,inhibition in vivo at 30 mg/kg,paw swelling; [3],51.1%
same,inhibition in vivo at 30 mg/kg,paw swelling; [4],25.5%
same,inhibition at 1 µM,human PMN,52%
same,inhibition at 0.01 µM,human PMN,54%
